The values that follow come from US20260364184A1, “COMPOUND BASED ON OXOISOINDOLINYL-SUBSTITUTED TETRAHYDROPYRIMIDINE-DIONE AND USE THEREOF” (GLUETACS THERAPEUTICS (SHANGHAI) CO., LTD., priority 2023, published 2026).

Common to all, as to type: cell-based
For one test, the target named is T1, IRAK4 (Homo sapiens, UniProt Q9NWZ3).
T1 construct: expression of target proteins in cells; endogenous in cells
T1 sequence (Q9NWZ3 1-460): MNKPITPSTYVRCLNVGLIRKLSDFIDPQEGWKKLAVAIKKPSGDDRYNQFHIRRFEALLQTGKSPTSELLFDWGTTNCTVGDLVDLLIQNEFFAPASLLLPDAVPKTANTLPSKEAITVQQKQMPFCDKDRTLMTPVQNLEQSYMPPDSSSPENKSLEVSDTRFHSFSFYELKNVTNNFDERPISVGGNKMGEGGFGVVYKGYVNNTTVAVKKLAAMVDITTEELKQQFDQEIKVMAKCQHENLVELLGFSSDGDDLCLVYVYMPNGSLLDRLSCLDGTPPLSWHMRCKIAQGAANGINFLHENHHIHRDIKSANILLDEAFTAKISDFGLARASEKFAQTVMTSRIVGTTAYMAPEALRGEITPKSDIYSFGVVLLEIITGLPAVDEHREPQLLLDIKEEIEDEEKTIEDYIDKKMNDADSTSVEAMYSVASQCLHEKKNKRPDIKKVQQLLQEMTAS
The experiment in a line: Western blot degradation of IRAK4. To be noted: hPBMC Cell; 24 hours. How it is done: Conventional Western blot assay was performed to evaluate the effects of the compounds of the present disclosure on the expression of target proteins in cells.
(1) Cell Seeding and Protein Harvesting: The selected cells were processed according to the cell seeding procedure and protein harvesting procedure in Table II-2.
(2) To the collected supernatant, 5×SDS sample loading buffer was added, followed by denaturation at 95 °C for 5 minutes. The denatured samples were then separated by SDS-PAGE electrophoresis on a polyacrylamide gel. Proteins were transferred to a nitrocellulose membrane (0.45 μm NC membrane), blocked with blocking buffer at room temperature for 1 hour, and subjected to antibody incubation and development procedures according to the antibody manufacturer's instructions (Cell Signaling Technology).
Half-Maximal Degradation Concentration value (the drug concentration required for degrading proteins by 50%, abbreviated as DC50) reads method: comparing the grayscale values of Western blot bands from drug-treated samples with those from blank DMSO-treated controls, and identifying the drug concentration range at which the grayscale value is half that of the DMSO-treated control bands.
DC50 values can be calculated using ImageJ software to measure grayscale values of Western blot bands from drug-treated samples. The concentration-response curve is fitted to estimate the drug concentration corresponding to half the grayscale value.
Target protein remaining (%) refers to the percentage of target protein remaining in cells after treatment with protein degrader compounds.
Calculation method for target protein remaining (%): Use ImageJ software to measure grayscale values of Western blot bands from drug (protein degrader)-treated samples. The grayscale value of drug-treated bands is divided by that of internal control protein bands, and the resulting quotient is normalized to obtain the relative percentage of remaining target protein after protein degrader treatment.
Target protein degradation rate (%)=1−target protein remaining (%).

Test [1] deals with Human Multiple myeloma cell line (MM.1S). Nature of the test: Inhibition of MM.1S cell proliferation (CellTiter luminescent viability). To be noted: Homo sapiens, MM1.S, Table IA5, IRAK4 inhibitor-based, 96 hours. How it is done: (§1) The tumor cells used herein were cultured in a cell culture medium listed in table 3 at 37 °C in an incubator with 5% CO2. Prior to experimentation, all cell lines used were correctly identified by STR profiling, and tested negative for mycoplasma contamination using a mycoplasma detection kit through routine screenings.
(§2) The IC50 values of the compounds of the present disclosure (including the compounds in Table 1, Table 2, and Examples 1-468) were determined using the CellTiter-Meiluncell Luminescent Cell Viability Assay Kit from Dalian Meilun Biotech Co., Ltd. The detailed procedure is as follows: Tumor cells were seeded in 96-well cell culture plates at the densities specified in Table 4. On the following day, the test compounds of the present disclosure were subjected to serial dilution. The dilution can be performed according to one of the following two methods: • (1) The first dilution method: The test compounds of the present disclosure (including the compounds in Table 1, Table 2, and Examples 1-468) were subjected to 5-fold serial dilutions starting from a highest concentration of 2000 μM, resulting in a total of 9 concentrations from high to low (2000, 400, 80, 16, 3.2, 0.64, 0.128, 0.0256, 0.00512 μM). Subsequently, 0.5 μL of the test compound dilution was transferred into the 96-well plate containing the cells, with each well containing 100 μL of cell culture medium. […] Into the 96-well plate, the diluted test compounds and corresponding detection reagents were added, resulting in final test compound concentrations of 500 nM and 10 nM, respectively. The experimental procedure is described below using the diluted 2 μM test compound as an example.
(§3) 0.5 μL of the aforementioned diluted compound of the present disclosure (including the compounds in Table 1, Table 2, and Examples 1-468) was added to the seeded cells in 100 μL of medium, yielding a final test compound concentration of 10 nM. After the cells were treated with the compounds of the present disclosure for a specified period, the cell viability assay reagent was added to the culture medium according to the kit's instructions to determine cell viability. […] All controls were treated using the same procedure as the compounds of the present disclosure. The growth inhibition curves for the compounds of the present disclosure were plotted using Prism GraphPad software, and the IC50 values were calculated therefrom.

Test [2] relates to Human Acute T Lymphoblastic Leukemia Cells (Molt-4). The experiment in a line: Inhibition of Molt-4 cell proliferation (CellTiter luminescent viability). The conditions noted are these: Homo sapiens, MOLT-4, 96 h, Table IA2, IRAK4 inhibitor-based, 96 hours. As for the experimental part:
as §1, §2, §3

Take `COc1cc2nn(C3CCN(Cc4ccc5c(c4)CN(N4CCC(=O)NC4=O)C5=O)CC3)cc2cc1NC(=O)c1cccc(C(F)(F)F)c1` [GT-04876, N-(2-(1-((2-(2,4-dioxotetrahydropyrimidin-1(2H)-yl)-1-oxoisoindolin-5-yl)methyl)piperidin-4-yl)-6-methoxy-2H-indazol-5-yl)-3-(trifluoromethyl)benzamide]: the “Degradation of substrate protein IRAK4 (substrate protein remaining %)” value (“Degradation … (substrate protein remaining %)” below) on IRAK4 is recorded as “A (0%≤substrate protein remaining %≤80%)”. Turning to `COc1cc2nn(C3CCN(CC4CCN(c5ccc6c(c5)C(=O)N(N5CCC(=O)NC5=O)C6=O)CC4)CC3)cc2cc1NC(=O)c1cccc(C(F)(F)F)c1` [GT-04877, N-(2-(1-((1-(2-(2,4-dioxotetrahydropyrimidin-1(2H)-yl)-1,3-dioxoisoindolin-5-yl)piperidin-4-yl)methyl)piperidin-4-yl)-6-methoxy-2H-indazol-5-yl)-3-(trifluoromethyl)benzamide], the “Degradation … (substrate protein remaining %)” value at IRAK4 is “A (0%≤substrate protein remaining %≤80%)”. On to `COc1ccc2cn(C3CCN(Cc4ccc5c(c4)CN(N4CCC(=O)NC4=O)C5=O)CC3)nc2c1NC(=O)c1cccc(C(F)(F)F)c1` [GT-04884, N-(2-(1-((2-(2,4-dioxotetrahydropyrimidin-1(2H)-yl)-1-oxoisoindolin-5-yl)methyl)piperidin-4-yl)-6-methoxy-2H-indazol-7-yl)-3-(trifluoromethyl)benzamide], for which the “Degradation … (substrate protein remaining %)” value at IRAK4 is listed as “A (0%≤substrate protein remaining %≤80%)”. For the compound `COc1ccc2cn(C3CCN(CC4CCN(c5ccc6c(c5)C(=O)N(N5CCC(=O)NC5=O)C6=O)CC4)CC3)nc2c1NC(=O)c1cccc(C(F)(F)F)c1` [GT-04885, N-(2-(1-((1-(2-(2,4-dioxotetrahydropyrimidin-1(2H)-yl)-1,3-dioxoisoindolin-5-yl)piperidin-4-yl)methyl)piperidin-4-yl)-6-methoxy-2H-indazol-7-yl)-3-(trifluoromethyl)benzamide], the “Degradation … (substrate protein remaining %)” value at IRAK4 is on record as “A (0%≤substrate protein remaining %≤80%)”. With `O=C1CCN(N2C(=O)c3ccc(N4CCC(CN5CCN(c6ccc7c(c6)nc(NC(=O)c6cccc(C(F)(F)F)c6)n7[C@H]6CC[C@@H](CO)CC6)CC5)CC4)cc3C2=O)C(=O)N1` [GT-05055, N-(5-(4-((1-(2-(2,4-dioxotetrahydropyrimidin-1(2H)-yl)-1,3-dioxoisoindolin-5-yl)piperidin-4-yl)methyl)piperazin-1-yl)-1-((1s,4s)-4-(hydroxymethyl)cyclohexyl)-1H-benzo[d]imidazol-2-yl)-3-(trifluoromethyl)benzamide], the “Degradation … (substrate protein remaining %)” value at IRAK4 was “A (0%≤substrate protein remaining %≤80%)”. Take `O=C1CCN(N2C(=O)c3ccc(N4CCC(CN5CCC(n6cc(NC(=O)c7cnn8ccc(N9C[C@H]%10C[C@@H]9CO%10)nc78)c(C(F)F)n6)CC5)CC4)cc3C2=O)C(=O)N1` [GT-05056, 5-((1R,4R)-2-oxa-5-azabicyclo[2.2.1]heptan-5-yl)-N-(3-(difluoromethyl)-1-(1-((1-(2-(2,4-dioxotetrahydropyrimidin-1(2H)-yl)-1,3-dioxoisoindolin-5-yl)piperidin-4-yl)methyl)piperidin-4-yl)-1H-pyrazol-4-yl)pyrazolo[1,5-a]pyrimidine-3-carboxamide]: the “Degradation … (substrate protein remaining %)” value on IRAK4 is listed as “A (0%≤substrate protein remaining %≤80%)”. On to `COc1cc2nn(C3CCN(Cc4ccc5c(c4)C(=O)N(N4CCC(=O)NC4=O)C5=O)CC3)cc2cc1NC(=O)c1cccc(C(F)(F)F)c1` [GT-05078, N-(2-(1-((2-(2,4-dioxotetrahydropyrimidin-1(2H)-yl)-1,3-dioxoisoindolin-5-yl)methyl)piperidin-4-yl)-6-methoxy-2H-indazol-5-yl)-3-(trifluoromethyl)benzamide], for which, on IRAK4, the “Degradation … (substrate protein remaining %)” value was “A (0%≤substrate protein remaining %≤80%)”. Still for that read-out and setting: as for `O=C1CCN(N2C(=O)c3ccc(N4CCC(N5CCN(C[C@H]6CC[C@H](n7cc(NC(=O)c8cnn9ccc(N%10C[C@H]%11C[C@@H]%10CO%11)nc89)c(C(F)F)n7)CC6)CC5)CC4)cc3C2=O)C(=O)N1` [GT-05122, 5-((1R,4R)-2-oxa-5-azabicyclo[2.2.1]heptan-5-yl)-N-(3-(difluoromethyl)-1-((1r,4R)-4-((4-(1-(2-(2,4-dioxotetrahydropyrimidin-1(2H)-yl)-1,3-dioxoisoindolin-5-yl)piperidin-4-yl)piperazin-1-yl)methyl)cyclohexyl)-1H-pyrazol-4-yl)pyrazolo[1,5-a]pyrimidine-3-carboxamide], the entry is “A (0%≤substrate protein remaining %≤80%)”; as for `O=C1CCN(N2C(=O)c3ccc(N4CCC(N5CCN(C[C@H]6CC[C@H](n7cc(NC(=O)c8cnn9ccc(N%10C[C@H]%11C[C@@H]%10CO%11)nc89)c(C(F)F)n7)CC6)CC5)C(F)(F)C4)cc3C2=O)C(=O)N1` (some centres unmarked) [GT-05123], “A (0%≤substrate protein remaining %≤80%)”.

On to `O=C1CCN(N2C(=O)c3ccc(N4CCC(N5CCC(CN6CCC(n7cc(NC(=O)c8coc(-c9ccnc(NCC%10CC%10)c9)n8)c(C(F)F)n7)CC6)CC5)CC4)cc3C2=O)C(=O)N1` [GT-05133, 2-(2-((cyclopropylmethyl)amino)pyridin-4-yl)-N-(3-(difluoromethyl)-1-(1-((1′-(2-(2,4-dioxotetrahydropyrimidin-1(2H)-yl)-1,3-dioxoisoindolin-5-yl)-[1,4′-bipiperidin]-4-yl)methyl)piperidin-4-yl)-1H-pyrazol-4-yl) oxazole-4-carboxamide], for which, at IRAK4, the “Degradation … (substrate protein remaining %)” value was “A (0%≤substrate protein remaining %≤80%)”. As for `Cn1c(=O)n(C2CCC(=O)NC2=O)c2cccc(C#CCOC3CCN(C[C@H]4CC[C@H](n5cc(NC(=O)c6cnn7ccc(N8C[C@H]9C[C@@H]8CO9)nc67)c(C(F)F)n5)CC4)CC3)c21` (some centres unmarked) [KT-474, reference compound], the inhibition at 0.01 µM in test [1] (10 nM, read-out: Inhibition Rate at 10 nM (%)) lay within 5 to 10%; in test [2] (Molt-4, 10 nM, read-out: Inhibition Rate at 10 nM (%)), 7 to 10%. For the same compound, the inhibition at 0.5 µM lay in the range of 15 to 20% in test [1] (500 nM, read-out: Inhibition Rate at 500 nM (%)) and 7 to 10% in test [2] (Molt-4, 500 nM, read-out: Inhibition Rate at 500 nM (%)).

In general, inhibition refers to the relative decrease from the control value, in per cent.
